Measurements taken from patent US7847132B2, “Hepatic fibrosis inhibitor” (Nippon Hypox Laboratories Incorporated, priority 2008, dated 2010).
Marks after values point to notes of the source that are not given here.

Key:
[1] = test system: rat model with carbon tetrachloride-induced liver cirrhosis; assay: Rat model with carbon tetrachloride-induced liver cirrhosis, Experimental Example 2 (compound 1 0.1 mg/mL in potable water); format: in vivo; conditions: for HA / ALB / ALT / AST / T-Bil: blood; for HA / ALB / ALT / AST / T-Bil / Body weight / Hepatic relative weight / Pancreatic relative weight / Number of animals with ascites retention: n = 10
Method: (§1) To six-week-old Wister male rats, 3 mL/kg of olive oil containing 40% of carbon tetrachloride or olive oil only were subcutaneously administered twice per week for eight weeks. On a parallel with the administration of the carbon tetrachloride, potable water in which 2,3,5-trimethyl hydroquinone-1-hexylether (compound 1) of the hydroquinone derivative identified by the aforementioned general chemical formula (1) is dissolved at a concentration of 0.3 mg/mL was given to one group of rats daily. Simultaneously, to another groups of rats, only water was given.
(§2) There were adopted four animal groups, i.e. olive oil administration group, olive oil-plus-compound 1 administration group, carbon tetrachloride administration group, and carbon tetrachloride-plus-compound 1 administration group, in the experimental example. Each group consists of ten animals. The animals were slaughtered eight weeks after start of administration of the carbon tetrachloride to carry out an examination. The examination items include ELISA measurement of the serum antibody valency of Naofen and RT-PCR measurement of the mRNA-expression level of Naofen in the liver.
An experimental examination was carried out with a rat model with carbon tetrachloride-induced liver cirrhosis in the same manner as the aforementioned experimental Example 1 except for use of the compound 1 with a concentration of 0.1 mg/mL. The examination includes measurements of some hepatic damage indexes such as blood AST, ALT, albumin (ALB) and total bilirubin (T-Bil), measurement of hyaluronan (HA) concentration serving as a maker of hepatic fibrosis, autopsy finding, measurements of body weight and organ weight, measurements of expression levels of TGF-β1 mRNA and type-I collagen mRNA in biologic cells by RT-PCR, and a histopathologic inspection.
The examination results of measurements of the liver weight, spleen weight, and number of animals with ascites retention are shown in Table 3. FIGS. 4 and 5 are photographs of hepatic tissues taken by using a Masson staining method and an immunohistochemical staining method (A: olive oil administration case, B: carbon tetrachloride administration case, C: olive oil-plus-compound 1 administration case, and D: carbon tetrachloride-plus-compound 1 administration case; and horizontal line on the bottom right: 100 μm).

[2] = test system: rat model with carbon tetrachloride-induced liver cirrhosis; assay: Rat model with carbon tetrachloride-induced liver cirrhosis, Experimental Example 1 (compound 1 0.3 mg/mL in potable water); format: in vivo
Method: as §1, §2

[3] = CCl4 + Compound 1 0.1 mg/mL in potable water, 8 weeks, mean ± SD
[4] = CCl4 + compound 1 0.1 mg/mL, result in words
[5] = Olive Oil + Compound 1 0.1 mg/mL in potable water, 8 weeks, mean ± SD
[6] = Olive Oil + Compound 1 0.1 mg/mL in potable water, 8 weeks
[7] = HX (+) group, 0.3 mg/mL in potable water, 8 weeks, total 7 animals

CCCCCCOc1cc(C)c(O)c(C)c1C [Compound 1, 2,3,5-trimethyl hydroquinone-1-hexylether]
HA ([1]; CCl4 + Compound 1 0.1 mg/mL in potable water, 8 weeks, marker of hepatic fibrosis, mean ± SD): 237.7 ± 36.6*^+ ng/mL | ALB [1, 3]: 3.8 ± 0.2*^+ g/dL | ALT [1, 3]: 422.4 ± 60.5**^++ IU/L | AST [1, 3]: 603.6 ± 126.3**^++ IU/L | T-Bil [1, 3]: 0.03 ± 0.02^+ mg/dL | Body weight [1, 3]: 240.8 ± 8.7 g | Hepatic relative weight [1, 3]: 16.1 ± 1.8^+ g (per 100 grams of body weight) | Pancreatic relative weight [1, 3]: 0.28 ± 0.01^+ g (per 100 grams of body weight) | Number of animals with ascites retention ([1]; CCl4 + Compound 1 0.1 mg/mL in potable water, 8 weeks): 1 | increase in TGF-β1 mRNA-expression level in the liver (RT-PCR) ([1]; CCl4 + compound 1 0.1 mg/mL, FIG. 2): suppressing increase | increase in type-I collagen mRNA-expression level in the liver (RT-PCR) ([1]; CCl4 + compound 1 0.1 mg/mL, FIG. 3): suppressing increase | accumulation of fibrous tissue (histopathologic inspection, Masson staining) ([1]; CCl4 + compound 1 0.1 mg/mL, hepatic tissue, FIG. 4): suppressed | expression of TGF-β1 (histopathologic inspection, immunohistochemical staining) ([1]; CCl4 + compound 1 0.1 mg/mL, hepatic tissue, FIG. 5): suppressed | increase in ALT due to administration of carbon tetrachloride [1, 4]: suppressing increase | increase in AST due to administration of carbon tetrachloride [1, 4]: suppressing increase | increase in hyaluronan concentration due to administration of carbon tetrachloride [1, 4]: suppressing increase | ALB [1, 5]: 4.3 ± 0.1 g/dL | ALT [1, 5]: 93.7 ± 34.1 IU/L | AST [1, 5]: 192.7 ± 93.4 IU/L | HA [1, 5]: 136.7 ± 16.6 ng/mL | T-Bil [1, 6]: 0 mg/dL | Body weight [1, 5]: 361.5 ± 1.5 g | Hepatic relative weight [1, 5]: 14.8 ± 1.5 g (per 100 grams of body weight) | Pancreatic relative weight [1, 5]: 0.20 ± 0.01 g (per 100 grams of body weight) | Number of animals with ascites retention [1, 6]: 0 | abnormality in olive oil-plus-compound 1 administration group ([1]; olive oil + compound 1 0.1 mg/mL in potable water, 8 weeks): no appreciable abnormality | increase in mRNA-expression level of Naofen in the liver (RT-PCR) ([2]; CCl4 + compound 1 0.3 mg/mL in potable water, weeks 6(+), weeks 8(+), FIG. 1): suppressed | number of animals with serum antibody valency of Naofen 4 < V < 16 (ELISA) [2, 7]: 1 | number of animals with serum antibody valency of Naofen V <= 4 (ELISA) [2, 7]: 4 | number of animals with serum antibody valency of Naofen V >= 16 (ELISA) [2, 7]: 2 | abnormality in olive oil-plus-compound 1 administration group ([2]; olive oil + compound 1 0.3 mg/mL in potable water, 8 weeks): no appreciable abnormality | antibody valency increase more than 16 times, compound 1 group (+) versus group (−), Fischer direct probability ([2]; serum antibody valency of Naofen, 0.3 mg/mL in potable water): significantly fewer
